Here are results for 15 compounds from ChEMBL document CHEMBL5537167, “Rising Star in Immunotherapy: Development and Therapeutic Potential of Small-Molecule Inhibitors Targeting Casitas B Cell Lymphoma-b (Cbl-b)” (J Med Chem, 2024).

The target in data set [1] is T1, E3 ubiquitin-protein ligase CBL-B (Homo sapiens, UniProt Q13191). Briefly: Inhibition of Cbl-b (unknown origin) by Cellular substrate assay.
A short description of a further data set: in vitro. The settings on record: rat, plasma.
Data set [2] can be described thus: Metabolic stability in human liver microsomes assessed as intrinsic clearance.
The nature of data set [3]: Metabolic stability in mouse liver microsomes assessed as intrinsic clearance.
The target of data set [4] is T1, E3 ubiquitin-protein ligase CBL-B. Nature of the data set: Inhibition of CBL-B (unknown origin) by FRET assay.
The target is the same in data set [5].
Description: Inhibition of N-terminal biotinylated Avi-tagged Cbl-b (36 to 427 residues) (unknown origin) by SPR assay
Data set [6] concerns Panel NCI-60 (60 carcinoma cell lines). Nature of the data set: Anti-proliferative activity against human Panel NCI-60 (60 carcinoma cell lines).
For data set [7], the target named is T1, E3 ubiquitin-protein ligase CBL-B. Briefly: Inhibition of CBL-B (unknown origin) by biochemical assay.
For data set [8] the target is unchanged. Nature of the data set: Inhibition of Cbl-b (unknown origin) using fluorophore-labeled probe by TR-FRET based Cb1-b displacement assay.
For data set [9] the target is unchanged. Nature of the data set: Inhibition of Cbl-b (unknown origin) by TR-FRET assay.

A value given as a limit tells only on which side of the number the result lay.

T1 sequence (Q13191 whole entry): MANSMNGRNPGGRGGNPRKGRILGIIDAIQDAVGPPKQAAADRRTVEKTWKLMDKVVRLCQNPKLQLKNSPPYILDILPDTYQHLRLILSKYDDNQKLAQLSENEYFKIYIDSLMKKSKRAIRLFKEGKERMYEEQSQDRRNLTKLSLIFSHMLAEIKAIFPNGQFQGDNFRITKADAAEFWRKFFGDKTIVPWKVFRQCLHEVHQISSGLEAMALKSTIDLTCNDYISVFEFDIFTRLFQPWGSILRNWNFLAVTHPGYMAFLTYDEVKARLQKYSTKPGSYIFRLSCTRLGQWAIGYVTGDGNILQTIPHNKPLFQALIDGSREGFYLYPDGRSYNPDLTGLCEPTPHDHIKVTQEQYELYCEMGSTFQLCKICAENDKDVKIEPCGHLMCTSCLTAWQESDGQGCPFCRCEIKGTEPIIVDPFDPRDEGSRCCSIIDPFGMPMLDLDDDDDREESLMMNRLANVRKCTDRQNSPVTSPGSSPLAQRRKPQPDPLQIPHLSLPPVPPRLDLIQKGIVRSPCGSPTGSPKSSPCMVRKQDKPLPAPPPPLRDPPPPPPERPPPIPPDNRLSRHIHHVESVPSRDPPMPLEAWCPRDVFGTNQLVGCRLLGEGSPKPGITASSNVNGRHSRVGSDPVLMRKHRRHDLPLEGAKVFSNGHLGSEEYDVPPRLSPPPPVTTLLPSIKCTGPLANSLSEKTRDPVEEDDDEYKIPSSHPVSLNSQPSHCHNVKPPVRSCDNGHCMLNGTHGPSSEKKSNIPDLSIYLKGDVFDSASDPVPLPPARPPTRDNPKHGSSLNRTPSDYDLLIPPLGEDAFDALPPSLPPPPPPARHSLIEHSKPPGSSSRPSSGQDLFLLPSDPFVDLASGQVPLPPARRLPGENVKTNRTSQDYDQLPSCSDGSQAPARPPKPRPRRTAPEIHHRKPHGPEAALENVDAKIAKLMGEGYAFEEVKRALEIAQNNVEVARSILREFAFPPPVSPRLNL

In turn, `Cc1cc(C(=O)Nc2cccc(C3(Cc4nncn4C)COC3)c2)nc(C2CC2)n1` gave an IC50 in data set [1] of 790 nM. Further, in the data set “in vitro”, the half-life was greater than 16.7 h. In addition, the CLint scaled amounted to 7 mL/min/kg in [2] and 26 mL/min/kg in [3]. Regarding `Cc1cc(C(=O)Nc2cccc([C@H](C)Cc3nncn3C)c2)nc(C2CC2)n1`, the IC50 came out at 780 nM in data set [1] and 38 nM in data set [4]. This compound yielded a half-life in “in vitro” of 2.72 h. In addition, the CLint scaled in data set [3] was 67 mL/min/kg. Regarding `C[C@H](Cc1nncn1C)c1cccc(NC(=O)c2ccnc(C3CC3)n2)c1`, the IC50 in data set [1] came to 1700 nM; in data set [4], 88 nM. Also, the results for the intrinsic clearance (CLint scaled) in data set [2] and in [3] were 30 mL/min/kg and 73 mL/min/kg, respectively. In turn, `Cc1cc(C(=O)Nc2cccc(C3(Cc4nocc4C)COC3)c2)nc(C2CC2)n1` returned a half-inhibitory concentration (IC50) in data set [5] of less than 100 nM. Compound `C[C@H](Sc1nncn1C)c1cccc(NC(=O)c2ccnc(C3CC3)n2)c1` showed a concentration for half-maximal inhibition (IC50) in [4] of 92 nM. Turning to `C[C@H]1CCCN(Cc2cc3c(c(C(F)(F)F)c2)CN(c2cccc([C@]4(c5nncn5C)C[C@@H](C)C4)c2)C3=O)C1`, the half-maximal inhibitory concentration (IC50) in data set [4] was no more than 5 nM.

`CN(C)c1c2c(c3nc4ccccc4c4c3c1N=C4)NCCC2=O` displayed a GI50 in data set [6] of 180 nM. In data set [7], this compound gave a half-inhibitory concentration (IC50) of 167000 nM. In turn, `C[C@H]1CCCN(Cc2cc3c(c(C(F)(F)F)c2)CN(c2cccc([C@]4(Cc5nncn5C)C[C@@H](C#N)C4)c2)C3=O)C1` returned a concentration for half-maximal inhibition (IC50) in [5] of less than 1 nM.

In data set [5], `Cn1cnnc1CC1(c2cccc(N3Cc4c(cc(CN5CCCC(CC#N)C5)cc4C(F)(F)F)C3=O)c2)COC1` (stereo unspecified) displayed a concentration for half-maximal inhibition (IC50) of 1 nM. In the case of `C[C@H](Cc1nncn1C)c1cccc(NC(=O)N2CCOc3cccnc32)c1`, in data set [8], the IC50 was less than 100 nM. With `Cn1cnnc1CC1(c2cccc(-n3cc4c(C(F)(F)F)cc(CN5CCC6(CC6)C5)cn4c3=O)c2)COC1`, the IC50 in data set [9] was less than 100000 nM. The same measure, in the same setting: in the case of `Cn1cnnc1[C@H](c1cccc(-n2cc3c(C(F)(F)F)cc(CN4CCC[C@@](C)(O)C4)cn3c2=O)c1)C1CCC1` it was less than 100000 nM. For the compound `C[C@@H]1CN(Cc2cc3c(c(C(F)(F)F)c2)CN(c2cccc(C4(c5nncn5C)CC(F)(F)C4)c2)C3=O)CCO1`, the half-maximal inhibitory concentration (IC50) in [5] was no more than 5 nM. Turning to `CN(C)c1c2c(c3nc4ccccc4c4c3c1N=C4N1C(=O)c3c4c(nc5ccccc35)C3=C(C(=O)CCN3)C(=[N+](C)C)C41)NCCC2=O` (stereo in doubt; (+)-8), the GI50 in data set [6] is greater than 30000 nM. For the same compound, the midpoint of inhibition in data set [7], the IC50, lay at 9700 nM.

Compound `CN(C)c1c2c(c3nc4ccccc4c4c3c1N=C4N1C(=O)c3c4c(nc5ccccc35)C3=C(C(=O)CCN3)C(=[N+](C)C)C41)NCCC2=O` (stereo in doubt; (-)-8) had a half-inhibitory concentration (IC50) in data set [7] of 7500 nM.
